Measured values: patent publication US20090191183A1, “SUBSTITUTED INDOLES” (AUSPEX PHARMACEUTICALS, INC., priority 2007, published 2009)
Blank lines part the entries; values can stand above or below the compound they belong to.

Columns and labels:
[1] = In vitro human liver microsomal (HLM) stability assay; type: in vitro ADME; settings: vs non-isotopically enriched drug; 1 mg per mL liver microsome protein, 1 μM, 37° C.; + marks the range of the column head
Protocol: Liver microsomal stability assays are conducted at 1 mg per mL liver microsome protein with an NADPH-generating system in 2% NaHCO3 (2.2 mM NADPH, 25.6 mM glucose 6-phosphate, 6 units per mL glucose 6-phosphate dehydrogenase and 3.3 mM MgCl2). Test compounds are prepared as solutions in 20% acetonitrile-water and added to the assay mixture (final assay concentration 1 μM) and incubated at 37° C. Final concentration of acetonitrile in the assay should be <1%. Aliquots (50 μL) are taken out at times 0, 7.5, 15, 22.5, and 30 min, and diluted with ice cold acetonitrile (200 μL) to stop the reactions. Samples are centrifuged at 12,000 RPM for 10 min to precipitate proteins. Supernatants are transferred to micro centrifuge tubes and stored for LC/MS/MS analysis of the degradation half-life of the test compounds.

[2] = treatment of mild to moderate asthma; cited from earlier work
[3] = target: T1, cytochrome P450 CYP2C9 (Homo sapiens, UniProt P11712); settings: human liver microsomes; at concentrations near clinically achieved total plasma concentrations; cited from earlier work
T1 construct: in vitro studies using human liver microsomes; from tissue; host or cells: human liver microsomes

[4] = target: T2, cytochrome P450 CYP3A4 (Homo sapiens, UniProt P08684); settings: human liver microsomes; at concentrations near clinically achieved total plasma concentrations; cited from earlier work
T2 construct: in vitro studies using human liver microsomes; from tissue; host or cells: human liver microsomes
T2 sequence (P08684 whole entry): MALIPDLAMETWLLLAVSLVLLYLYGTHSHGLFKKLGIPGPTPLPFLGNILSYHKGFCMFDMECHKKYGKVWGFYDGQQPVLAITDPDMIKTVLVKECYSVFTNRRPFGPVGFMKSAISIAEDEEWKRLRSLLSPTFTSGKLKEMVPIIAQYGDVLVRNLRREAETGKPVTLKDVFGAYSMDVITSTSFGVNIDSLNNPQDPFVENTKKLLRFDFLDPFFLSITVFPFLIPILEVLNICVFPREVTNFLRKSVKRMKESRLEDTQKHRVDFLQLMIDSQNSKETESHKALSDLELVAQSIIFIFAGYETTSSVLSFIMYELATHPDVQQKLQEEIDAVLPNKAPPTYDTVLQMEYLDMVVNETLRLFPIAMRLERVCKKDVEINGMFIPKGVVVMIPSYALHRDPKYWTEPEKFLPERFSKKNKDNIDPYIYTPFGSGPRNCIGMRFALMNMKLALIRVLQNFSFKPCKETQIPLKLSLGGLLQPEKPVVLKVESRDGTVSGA

T1 sequence (P11712 whole entry): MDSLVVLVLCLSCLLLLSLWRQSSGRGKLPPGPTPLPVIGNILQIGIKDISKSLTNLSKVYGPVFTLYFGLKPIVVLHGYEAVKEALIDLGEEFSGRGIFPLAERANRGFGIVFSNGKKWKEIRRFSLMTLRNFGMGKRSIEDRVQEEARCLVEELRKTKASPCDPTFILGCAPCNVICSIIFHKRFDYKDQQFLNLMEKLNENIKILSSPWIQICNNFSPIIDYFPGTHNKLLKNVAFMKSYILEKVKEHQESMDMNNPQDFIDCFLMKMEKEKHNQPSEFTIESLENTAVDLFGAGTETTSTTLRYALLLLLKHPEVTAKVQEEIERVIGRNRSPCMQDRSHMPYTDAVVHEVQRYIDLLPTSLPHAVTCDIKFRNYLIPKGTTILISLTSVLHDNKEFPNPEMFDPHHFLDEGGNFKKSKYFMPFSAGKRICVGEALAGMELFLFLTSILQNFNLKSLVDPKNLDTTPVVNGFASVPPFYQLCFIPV

% increase of HLM degradation half-life, 15%-25% [1]: + (15%-25%)
Compound: [2H]C([2H])([2H])c1ccccc1S(=O)(=O)NC(=O)c1ccc(Cc2cn(C)c3ccc(NC(=O)OC4CCCC4)cc23)c(OC)c1 [Example 3]

% increase of HLM degradation half-life, 15%-25% [1]: + (15%-25%)
Compound: [2H]C([2H])([2H])n1cc(Cc2ccc(C(=O)NS(=O)(=O)c3ccccc3C)cc2OC)c2cc(NC(=O)OC3CCCC3)ccc21 [Example 4]

% increase of HLM degradation half-life, column >25% [1]: + (>25%)
Compound: [2H]C([2H])([2H])Oc1cc(C(=O)NS(=O)(=O)c2ccccc2C([2H])([2H])[2H])ccc1Cc1cn(C([2H])([2H])[2H])c2ccc(NC(=O)OC3CCCC3)cc12 [Example 7]

The remaining lines, values behind:

Compound: COc1cc(C(=O)NS(=O)(=O)c2ccccc2C)ccc1Cc1cn(C)c2ccc(NC(=O)OC3CCCC3)cc12 [Example 1, reference compound]
% increase of HLM degradation half-life, 5%-15% [1]: + (5%-15%)

Compound: [2H]C([2H])([2H])Oc1cc(C(=O)NS(=O)(=O)c2ccccc2C)ccc1Cc1cn(C)c2ccc(NC(=O)OC3CCCC3)cc12 [Example 2]
% increase of HLM degradation half-life, 5%-15% [1]: + (5%-15%)

Compound: [2H]C([2H])([2H])Oc1cc(C(=O)NS(=O)(=O)c2ccccc2C([2H])([2H])[2H])ccc1Cc1cn(C([2H])([2H])[2H])c2ccc(NC(=O)OC3([2H])C([2H])([2H])C([2H])([2H])C([2H])([2H])C3([2H])[2H])cc12 [Example 6]
% increase of HLM degradation half-life, 15%-25% [1]: + (15%-25%)

Compound: COc1cc(C(=O)NS(=O)(=O)c2ccccc2C)ccc1Cc1cn(C)c2ccc(NC(=O)OC3CCCC3)cc12 [zafirlukast, 4-(5-cyclopentyloxy-carbonylamino-1-methyl-indol-3-ylmethyl)-3-methoxy-N—O-tolylsulfonylbenzamide]
hepatotoxicity [2]: occasional idiosyncratic hepatotoxicity
inhibition of cytochrome P450 CYP2C9 isoenzyme [3]: inhibits
inhibition of cytochrome P450 CYP3A4 isoenzyme [4]: inhibits
